{
  "source": "patent US20200214296A1",
  "about": "“MICROBICIDAL COMPOSITION” (DDP Specialty Electronic Materials US, Inc., priority 2017, published 2020)",
  "key": {"[1]": {"system": "Pseudomonas aeruginosa & E. coli mix", "experiment": "Synergy in the planktonic phase, biocide challenge with resazurin regrowth readout", "assay_type": "cell-based, Pseudomonas aeruginosa (DSM: 50071) and E. coli (DSM: 1576)", "conditions": "P. aeruginosa/E. coli, after 48 hours, phosphate buffer pH 7.3, used alone", "method": "Pseudomonas aeruginosa (DSM: 50071) and E. coli (DSM: 1576) cultures were separately prepared from glycerol stocks; first they were streak plated and validated with a microscope. Single colonies were picked and shake flasks were inoculated and left overnight at 37° C. (TSB medium) to produce the initial inoculum. The challenge block (a 96 wells plate) was prepared using phosphate buffer at pH 7.3, (0.0027M potassium chloride, 0.137 M sodium chloride). The Biocide challenging was done at 30° C. Inoculation took place at the start of the experiments and after 48 hours a re-inoculation was done. Challenging was monitored up to 7 days in total. In Table 1, the concentrations used for the synergy experiments are listed. Each experiment was done in triplicate. […] The recovery plates were subsequently read (checked for microbial growth) at 24 and 48 hours after addition of the culture. Plate reading took place twice for each time point, to look at potential changes. Reading took place utilizing separate 96 wells plates pre filled with fresh media. […] This was done in triplicate for each point (the triplicate is already present in the biocide block viz. each point is truly determined in triplicate). […] Ranking was done per average value of three data points determined per experiment. (Recorded in log regrowth). […]"}, "[2]": {"system": "Pseudomonas aeruginosa biofilm", "experiment": "Biofilm dissipation synergy on MBEC plate pegs", "assay_type": "cell-based", "conditions": "P. aeruginosa biofilm, 24 hour contact time, 5 day regrowth; pass = total eradication of the biofilm", "method": "One measure of synergism is the industrially accepted method described by Kull, […]. and Mayer, R. L., in Applied Microbiology 9:538-541 (1961), using the ratio determined by the formula: Qa/QA+Qb/QB=Synergy Index (“SI”) […] A Pseudomonas aeruginosa culture was prepared from glycerol stocks. First, the culture was streak plated. Single colonies were selected and shake flasks were inoculated and left overnight at 37° C. (TSB medium). The culture was diluted in phosphate buffer pH 7.3 1:1000000 prior to set up the biofilm plate Biofilm was developed overnight on P&G MBEC plates. The 96 well plates were covered with the lid holding the pegs partially submerged in the growth media. Biofilm was developed on the pegs leading to a total cell amount of 7*10^10 cells per peg. The top plates (with the pegs) were then subsequently washed and then placed into a 96 well challenge plate with the biocidal components in the given amounts. […] The contact time of the biofilms with the microbicidal mix was 24 hours. After the challenging, the biofilms were gently washed, sonicated from the pegs into recovery media (TSB 30 g/l, with resazurin, 0.01%), from these wells directly after sonication 10× dilution series were made on separate plates. These were left to recover for 3 to 5 days at 30° C. […] It could then be back-calculated how many cells remained after challenging of the biofilm with biocides. […]"}, "Thermus thermophilus": {"system": "Thermus thermophilus", "experiment": "Synergy in the planktonic phase, biocide challenge with resazurin regrowth readout", "assay_type": "cell-based, Thermus thermophilus (DSM: 579)", "method": "The inoculum prepared added between to 1*10^8 to 1*10^9 total cells/ml (in each well). At several timepoints 20 microliter aliquots of each treatment (well) were added to 96 well plates with TSB+Resazurin. These 96 well plates were filled with 'recovery' media (TSB 30 grams/liter). One of such plates was prepared for each column of the assay block. 180 μl recovery media was added to each well of a 96 well plate, except for column 1 of the recovery plate. This column was filled with 180 μl of one column of the assay block. The last three columns on the recovery plate were not pipetted. These columns represented the no template control for verifying proper plate set up and data reliability. […] The recovery plates were subsequently read (checked for microbial growth) at 24 and 48 hours after addition of the culture. Plate reading took place twice for each time point, to look at potential changes. Reading took place utilizing separate 96 wells plates pre filled with fresh media. […] This was done in triplicate for each point (the triplicate is already present in the biocide block viz. each point is truly determined in triplicate). […] Ranking was done per average value of three data points determined per experiment. (Recorded in log regrowth). […]"}},
  "data": [
    {"smiles": "O=CC=O", "note": "[Glyoxal, glyoxal]", "values": [
      {"measurement": "Glyoxal standalone 48 h pass", "setting": "[1]", "result": "≥2000", "unit": "ppm"},
      {"measurement": "Glyoxal (standalone pass)", "setting": "[2]", "result": 1280, "unit": "ppm"},
      {"measurement": "Glyoxal standalone 48 h pass", "setting": "Thermus thermophilus; T. thermophilus, planktonic, after 48 hours, 60° C., standard ocean matrix salinity 2%, used alone", "result": 40, "unit": "ppm"},
      {"measurement": "Sensitivity of Thermus thermophilus vs. Pseudomonas aeruginosa and E. coli", "setting": "Thermus thermophilus; comparison in words, footnote of Table 2", "result": "more sensitive"}
    ]}
  ]
}
